Source: patent US20220273688A1, “Treatment of Glycosylation Deficiency Diseases” (Wellstat Therapeutics Corporation, priority 2014, published 2022)

How the values were obtained:
[1] = test system: Phosphoglucomutase-1 (PGM-1) deficiency; details: galactose 0.5 to 1 g/kg per day; cited from earlier work
[2] = test system: patient with GNE myopathy; experiment: Treatment of a GNE myopathy patient with N-acetylmannosamine plus uridine triacetate; assay type: in vivo, human; details: uridine triacetate 2 g/m2 BSA twice per day with oral N-acetylmannosamine 3 to 10 grams per day
Procedure: A patient displaying progressive distal muscle weakness, with vacuoles and filamentous inclusions in a muscle biopsy, is diagnosed with GNE myopathy by testing for mutations in GNE, which result in impaired synthesis of endogenous sialic acid. The patient is treated with oral N-acetylmannosamine at a dose of 3 to 10 grams per day. The patient is also treated with uridine triacetate a dosage of 2 grams per square meter of body surface area administered twice per day.

[3] = test system: patient with GPT deficiency (Type II CDG); experiment: Treatment of a GPT deficiency patient with N-acetylglucosamine plus uridine triacetate; assay type: in vivo, human; details: uridine triacetate 2 g/m2 BSA twice per day with N-acetylglucosamine 200 mg/kg per day
Procedure: A patient displaying severe hypotonia, medically intractable seizures, developmental delay andmicrocephaly is diagnosed with a deficiency of activity of the enzyme GPT, a Type II CDG, by detection of a mutation in its encoding gene DPAGT-1. (“GPT” is the enzyme dolichol phosphate N-acetyl-glucosamine-1 phosphate transferase; “DPAGT-1” is the gene that encodes GPT.) The patient is treated with N-acetylglucosamine at a dose of 200 mg/kg per day. The patient is also treated with uridine triacetate a dosage of 2 grams per square meter of body surface area administered twice per day.

[4] = test system: patient with congenital disorder of glycosylation (reduced availability of a uridine-diphospho sugar); experiment: Treatment of a CDG patient with oral uridine triacetate; assay type: in vivo, human; details: 2 grams per square meter of body surface area, three times per day
Procedure: A patient displaying developmental delays is diagnosed with a congenital disorder of glycosylation by detection of a mutation affecting glycosylation by reducing availability of a uridine-diphospho sugar, corroborated by biochemical measurements in cells from the patient. The patient is treated with oral uridine triacetate at a dose of 2 grams per square meter of body surface area, administered three times per day.

[5] = test system: patient with phosphoglucomutase-1 deficiency (Type II CDG); experiment: Treatment of a phosphoglucomutase-1 deficiency patient with d-galactose plus uridine triacetate; assay type: in vivo, human; details: uridine triacetate 2 g/m2 BSA twice per day with 1 gram/kg d-galactose per day
Source text: A patient with multisystem disease consistent with phosphoglucomutase deficiency receives a definitive diagnosis via detection of impaired transferring glycosylation and a mutation in PGM-1.

SMILES | symptom resolution [1] | clinical response versus N-acetylmannosamine alone [2] | clinical response versus N-acetylglucosamine alone [3] | response to treatment (protein glycosylation and clinical condition) [4] | clinical response versus d-galactose alone [5]
O=C[C@H](O)[C@@H](O)[C@@H](O)[C@H](O)CO [galactose] | partial resolution of some symptoms |  |  |  | 
CC(=O)OC[C@H]1O[C@@H](n2ccc(=O)[nH]c2=O)[C@H](OC(C)=O)[C@@H]1OC(C)=O [uridine triacetate, 2′,3′,5′-tri-O-acetyluridine] |  | improves the clinical response beyond that achieved with N-acetylmannosamine alone | improves the clinical response beyond that achieved with N-acetylglucosamine alone | responds to treatment, displaying biochemical measures of improved protein glycosylation and concurrent improvements in clinical condition | improves the clinical response beyond that achieved with d-galactose alone
